# Patent US9012483B2, “Use of L-Histidine and derivatives thereof” (priority 2011, dated 2015)
# “Also recorded” adds a separate entry of the source. Read-outs that look alike come from different tables or passages of the source. Marks after values point to notes of the source that are not given here.
# Experiments:
# Gd(DTPA-BMA) = experiment: Dissociation of Gd(DTPA-BMA) in artificial plasma, relaxivity at 20 MHz; type: physicochemical; conditions: pH 7.5, 37° C.
# [1] = system: Gd(DTPA-BMA) and Gd(DTPA) complexes with Cu(II); experiment: Kinetics of transmetallation of Gd(DTPA) and Gd(DTPA-BMA) with Cu(II) in the presence of citrate and histidine (spectrophotometry, 300 nm); type: physicochemical; conditions: [GdL]=2.0 mM, [Cu]=0.1 mM, [cit]=2.0 mM, [His]=0.2-0.8 mM, pH 7.0, 25° C., 0.15 M NaCl
# Description: In order to have some clues on the kinetics of a possible transmetallation reactions in the presence of citrate (an important counter-ion present in plasma and found to be highly interactive with Gd^3+) and increasing amounts of histidine, the rates of the following reactions have been studied: GdL+Cu^2++His+cit⇄CuL+Gd(cit)+His (1)
# In the experiment, the concentration used for Gd^3+ complex (GdL), citrate and Cu^2+ were: 2.0, 2.0 and 0.1 mM, respectively, while the concentration of His was varied (0.2, 0.4, 0.6 and 0.8 mM).
# The progress of the exchange reactions (1) has been studied by spectrophotometry (Cary 1E spectrophotometer) at 300 nm, with the use of 1.0 cm quartz cell at 25° C. in 0.15 M NaCl in the pH range 6-8. […]
# [2] = for changes in Gd^3+ content in liver and spleen: versus group 1; for % ID in femour, mean / Gadolinium content in femour, mean: p < 0.01 vs group 1; for Gadolinium content in skin, mean: p < 0.05 vs group 1
# Description: L-Histidine was orally administered by gavage, while Omniscan® was intravenously administered.
# On the day of scheduled sacrifice, animals were anesthetized with an inhalation agent, sevoflurane, at an respiratory concentration of 3% in induction and 1-2% in maintenance and bled after collection of blood from the abdominal aorta. After exsanguination, liver, spleen, femur and skin of all animals were excised, weighed and prepared for ICP-MS determination of gadolinium content. Sample digestion (spleen and femur) was performed by a microwave system (MARS-5 CEM Corporation).
# Liver and skin samples were freeze-dried with a lyophilizer (Alpha-1-2LD Plus, CHRIST) after being frozen at −80° C. for at least 1 h. After drying, dehydrated livers were weighed and then ground in a mortar.
# Gadolinium content in organs was reported as μg of Gd.
# [3] = Clinical signs in the pharmacokinetic study after oral histidine; type: in vivo, CD(SD)IGS BR rat; conditions: rat, up to 1000 mg/kg
# Description: (§1) Rats were used to determine the pharmacokinetic parameters after administration of three different histidine doses (100, 500 and 1000 mg/kg, three animals for each group).
# [4] = cited from earlier work
# [5] = Pharmacokinetics of histidine in plasma after oral administration; type: in vivo, CD(SD)IGS BR rat; conditions: for Tmax / AUC(0-inf) / Cmax: male, CD(SD)IGS BR; for Tmax / AUC(0-inf) / Cmax / t1/2λz: rat plasma; for total plasma clearance: rat
# Description: Aliquots of L-Histidine dihydrochloride powder, accurately weighted, were transferred into 5 and 10 mL volumetric flasks. MilliQ-water was used to dissolve the powder. Standard solution was prepared to obtain CAL samples and CQ samples. The range of the stock standard solution was from 3.46 to 343 μg/mL. All standard solutions were stored at +4° C., in the dark: under these conditions they were considered stable for up to one month.
# CAL samples were prepared by using the standard solution at the concentration of 3.46, 34.3, 68.6, 173 and 343 μg/mL and QC samples by using the standard solution at the concentration of 14.3, 67.1, 143 and 268 μg/mL.
# CAL and QC samples were prepared by mixing 10 μL of Histidine standard solution with […] of blank rat plasma.
# (§2) To these samples 20 μL of trichloroacetic acid (16% w/v) were added to precipitate the plasma proteins. The tubes were vortexed for few seconds and centrifuged for 10 min at 2000 g at room temperature; to 90 μL of the clear supernatant 45 μL of a soaked solution of Sodium carbonate (200 mM) and 90 μL of derivatizing solution (4 mg/mL of Dansyl chloride) were added. The tubes were vortexed for few seconds and incubated under stirring for 30 minutes at 60° C. Five microliters of Methylamine Hydrochloride were added and after cooling for 15 minutes, ten microliters of the sample were injected into the HPLC equipment.
# as §2, with “Test plasma samples (S) were prepared by adding 10 μL of Milli-Q water to 90 μL of undiluted plasma or 90 μL of plasma suitably diluted with blank plasma (if sample volume was not enough). To” for “To”, “equipment. All plasma samples collected during the study were stored at −20° C. until analysis.” for “equipment.”
# • Species and strain: CD(SD)IGS BR rat • sex of animals: males • Weight and age at treatment: 306-376 g (10-14 weeks old) • Supplier: Charles River Laboratories, Calco (LC), Italy
# as §1
# Plasma concentrations of Histidine as a function of time after injection C(t), were analyzed by non-parametric methods using the computer program WIN-NONLIN 4.0.1. For the tested doses, a non-compartmental analysis was performed using the average plasma concentrations from 3 animals for each time point (except when indicated). For Cmax (peak plasma concentration) and the corresponding tmax ([…]) the observed values were reported. The terminal phase elimination rate constant (λz) was estimated by log-linear regression of those data points visually assessed to be in the terminal phase of the profile. At least three terminal plasma concentrations were used for estimating λz. The terminal elimination half life (t ½ λz, time required for a drug to decline to half of its original plasma value) was calculated as t ½ λz=In 2/λz. Area under the plasma concentration-time curve to the last observable plasma concentration (AUC(0 to t)) was calculated from observed data using the logarithmic trapezoidal method. Total area under the plasma concentration-time curve from zero to infinity (AUC(0 to ∞)) was estimated by AUC(0 to ∞) =AUC(0 to t) +ct/λz, where ct is the predicted concentration at the last quantified time point. AUC defines extent of drug exposure.
# [6] = cited from earlier work; remark: listed apart in the source
# [7] = rat, oral histidine 4.38 mmol/kg and iv Omniscan 1 mmol/kg
# Cu(His)2 = experiment: Exchange reaction between Gd(DTPA-BMA) and Cu(His)2 without and with citrate (UV spectrum); type: physicochemical; conditions: Cu(His)2 0.2 mM, Gd(DTPA-BMA) 2.0 mM, pH 6.5, 25° C., 0.15 M NaCl
# Description: FIG. 3. The UV spectrum of Cu(His)2 in the presence of Gd(DTPA-BMA) excess (Panel A) and in the presence of citrate and Gd(DTPA-BMA) excess (Panel B). (Cu(His)2=0.2 mM, Gd(DTPA-BMA)=2.0 mM) (A). (Cu(His)2=0.2 mM, Gd(DTPA-BMA)=2.0 mM, Citrate=2.0 mM) (B). pH=6.5, 25° C., 0.15 M NaCl.
# It is possible to conclude that in body fluids transmetallation reactions may take place between the DTPA-derivative Gd^3+ complexes and endogenous metal ions, like Cu^2+ and Zn^2+. The possibility of the transmetallation reactions can be predicted on the basis of the stability constants of complexes formed between the most important endogenous metals and ligands. The stability constants have been determined for the Gd^3+, Cu^2+ and Zn^2+ complexes of the DTPA, DTPA-BMA, citrate and histidine ligands. […] The species distribution calculations have been experimentally verified by following the exchange reactions between Gd(DTPA-BMA) and Cu(His)2 in the absence and presence of citrate.
# [8] = group 2, histidine pretreatment at 30 min
# [9] = group 2: oral histidine 4.38 mmol/kg 30 min before Omniscan 1 mmol/kg iv, 24 h
# [10] = group 2: oral histidine 4.38 mmol/kg 30 min before Omniscan 1 mmol/kg iv, 24 h, listed as Histidine
# [11] = group 2: oral histidine 4.38 mmol/kg 30 min before Omniscan 1 mmol/kg iv, 24 h, listed as histidine
# [12] = histidine 30 min before Omniscan versus no histidine pretreatment
smiles,measurement,setting,value
N[C@@H](Cc1c[nH]cn1)C(=O)O [L-Histidine],effect on the increase of relaxivity / extent of dissociation of Gd(DTPA-BMA),Gd(DTPA-BMA); histidine 0.5 mM and 1.0 mM added to artificial plasma with 1.0 mM Gd(DTPA-BMA),concentration dependent drop in the increase of the relaxivity values; also recorded: significantly decreases
same,"extent (conversion) of the transmetallation reactions, CuL formed",[1]; listed as Histidine,decrease
same,rates of the transmetallation reactions,[1]; listed as Histidine,decrease
same,"extent (conversion) of the transmetallation reactions, CuL formed",[1]; listed as histidine,significantly decrease; also recorded: decrease with increasing concentration of histidine
same,rates of the transmetallation reactions,[1]; listed as histidine,significantly decrease; also recorded: decrease with increasing concentration of histidine
same,"% ID in liver, spleen and skin versus group 1",[2]; [8],not significantly different
same,changes in Gd^3+ content in liver and spleen,[2]; [8],no significant changes
same,"% ID in liver, mean",[2]; [9],0.1094 % ID
same,"% ID in skin, mean",[2]; [9],0.0067 % ID
same,"% ID in spleen, mean",[2]; [9],0.00478 % ID
same,"Gadolinium content in liver, mean",[2]; [9],20.7 nmol/g of tissue
same,"Gadolinium content in spleen, mean",[2]; [9],20.0 nmol/g of tissue
same,"% ID in femour, mean",[2]; [10],0.00166** % ID
same,"Gadolinium content in femour, mean",[2]; [10],6.90** nmol/g of tissue
same,"% ID in femour, mean",[2]; [11],0.00166 % ID
same,"Gadolinium content in femour, mean",[2]; [11],6.90 nmol/g of tissue
same,"Gadolinium content in skin, mean",[2]; [10],11.25* nmol/g of tissue
same,"Gadolinium content in skin, mean",[2]; [11],11.25 nmol/g of tissue
same,changes in Gd^3+ content in liver and spleen,"[2]; group 3, histidine pretreatment at 1 h",no significant changes
same,decrease in Gd^3+ content in femur (nmol/g tissue),[2]; [12],about 40%
same,decrease of % ID in femour,[2]; [12],about 40%
same,effect on Gd^3+ accumulation,[2]; histidine treatment 60 min before Omniscan administration,"didn't show, in this model, any effect"
same,clinical signs,[3],No clinical signs were observed
same,"serum parameters including protein bound zinc, serum and urinary zinc levels","[4]; human subjects, L-histidine up to 4 g/day, 15-days treatment",not shown to be grossly altered
same,adverse effects,"[4]; humans, oral, up to 4-6 g/day for several days",neither important adverse effects nor minor inconveniences
same,Tmax,[5]; 100 mg/kg,0.5 h
same,Tmax,[5]; 1000 mg/kg,0.5 h
same,AUC(0-inf),[5]; Histidine 100 mg/kg,550 µg·h/mL
same,Cmax,[5]; Histidine 100 mg/kg (0.438 mmol/kg),9000 ng/mL
same,AUC(0-inf),[5]; Histidine 500 mg/kg,630 µg·h/mL
same,Tmax,[5]; Histidine 500 mg/kg,1 h
same,Cmax,[5]; Histidine 500 mg/kg (2.192 mmol/kg),20900 ng/mL
same,AUC(0-inf),[5]; Histidine 1000 mg/kg,390 µg·h/mL
same,Cmax,[5]; Histidine 1000 mg/kg (4.38 mmol/kg),36000 ng/mL
same,t1/2λz,[5]; Histidine 100 mg/kg (Table A),51 h
same,t1/2λz,[5]; Histidine 500 mg/kg (Table A),47 h
same,t1/2λz,[5]; Histidine 1000 mg/kg (Table A),13 h
same,total plasma clearance,[5]; 100 mg/kg,3 mL/min/kg
same,total plasma clearance,[5]; 500 mg/kg,13.2 mL/min/kg
same,total plasma clearance,[5]; 1000 mg/kg,42.7 mL/min/kg
same,time to peak levels after oral administration,"[6]; L-Histidine in the salt form (HCl), oral route",30 to 45 min
same,AUC(0 to ∞),"[6]; healthy volunteers, single oral administration of Histidine at 100 mg/kg",477 µg·h/mL
same,mortality and clinical signs,[7],No mortalities nor changes in clinical signs
"CNC(=O)CN(CCN(CCN(CC(=O)[O-])CC(=O)NC)CC(=O)[O-])CC(=O)[O-].[Gd+3] [Omniscan ®, Gadodiamide]",relaxivity values as a function of time (dissociation of the complex),"Gd(DTPA-BMA); 1.0 mM Gd(DTPA-BMA) in artificial plasma, no added histidine",relaxivity values increase as a function of time
same,changes of the UV spectrum of Cu(His)2 (transmetallation),Cu(His)2; citrate 2.0 mM,the transmetallation reaction takes place
same,changes of the UV spectrum of Cu(His)2 (transmetallation),Cu(His)2; no citrate,no changes
